Test results: patent US11324748B2, “Vasodilators for treatment of heart failure” (NORTHEAST OHIO MEDICAL UNIVERSITY, priority 2017, dated 2022)
Structures can show the parent of a compound that is named as a salt.

Columns and labels:
[1] = tested on: heart failure induced by TAC (transaortic constriction); settings: TAC mice, treatment started at week 5; FIG. 7
[2] = tested on: mice with heart failure (HFrEF); assay: Treadmill exercise time and whole body oxygen consumption in mice with heart failure, FIG. 9
[3] = tested on: heart failure (HF) induced by transaortic constriction (TAC); assay: Transaortic constriction (TAC) heart failure in mice, echocardiography; chromonar or vehicle from end of week 13; assay type: in vivo
Description: Ejection fraction is the percentage of blood in the left ventricular chamber that the heart ejects per beat. Under normal conditions, the heart will eject 60-70% of left ventricular volume with each contraction, but the failing heart ejects considerably less. After the control measurements to establish baseline % EF, mice underwent surgery to constrict the aortic artery. This procedure, termed transaortic constriction (TAC), causes the heart to pump against a high blood pressure, which causes it to fail. […] At the end of the 13th week, mice were either treated with chromonar (as continuous infusion) or a vehicle (that the chromonar was dissolved in).
Another way of assessing the effectiveness of a therapy in heart failure is to determine how much volume is in the left ventricle before it begins to contract (termed diastolic volume). When contractile function of the heart declines, this volume progressively increases. This volume is important for a number of reasons. First, it is directly related to energy consumption of the heart (as the volume increases energy consumption is increased). Second, if this volume becomes too large, the heart muscle can be overstretched and will contract even more poorly—this is referred to as decompensated heart failure. Third, as the diastolic volume increases pressures and volumes “upstream” in the atrium and pulmonary vessels will also increase. […]

Takotsubo Syndrome = Takotsubo Syndrome produced by TAC, ventricular function, FIG. 11; assay type: in vivo, mice; settings: 4 weeks, 2 weeks of treatment
[4] = tested on: myocardial blood flow in the failing heart; assay: Myocardial blood flow by myocardial contrast echocardiography during norepinephrine cardiac stress test in HF mice; assay type: in vivo; settings: FIG. 2 right
Protocol: After the control measurements to establish baseline % EF, mice underwent surgery to constrict the aortic artery. This procedure, termed transaortic constriction (TAC), causes the heart to pump against a high blood pressure, which causes it to fail. […] At the end of the 13th week, mice were either treated with chromonar (as continuous infusion) or a vehicle (that the chromonar was dissolved in).
Myocardial contrast echocardiography (MCE) was used to measure myocardial blood flow in both groups of mice. […] Mice were determined to be in HF when EF<40%). After the development of failure, myocardial blood flow was measured during a cardiac stress test produced by infusion of norepinephrine to increase myocardial metabolic demands. A plot of cardiac work vs MBF was made for the sham mice and for those in HF. To estimate metabolic demands, the index wall stress rate product (WSRP) was developed.

| Structure (SMILES) | cardiac function (EF %) [1] | total exercise time on a treadmill [2] | whole body oxygen consumption ([2]; within 5 minutes of exercise) | cardiac function (ejection fraction, % EF) ([3]; treated at end of 13th week, continuous infusion, FIG. 2 left) | Left Ventricular Diastolic Volume ([3]; treatment at end of week 13, FIG. 3) | ventricular function (EF %) (Takotsubo Syndrome) | relationship between MBF and cardiac work (WSRP) ([4]; failing heart after chromonar) | myocardial blood flow (MBF) ([4]; failing heart, during changes in cardiac work (WSRP)) |
| --- | --- | --- | --- | --- | --- | --- | --- | --- |
| CC(C)NCC(O)COc1cccc2ccccc12 (stereo not shown) [propranolol] | continued to decrease | about 45 minutes | lower oxygen consumption than the chromonar treated group | – | – | – | – | – |
| CCOC(=O)COc1ccc2c(C)c(CCN(CC)CC)c(=O)oc2c1 [chromonar, 14.3-(beta-Diethylaminoethyl)-4-methyl-7-(carbethoxymethoxy)-coumarin hydrochloride] | improved dramatically | ~70 min | – | restored cardiac function—nearly back to the control levels | diastolic volumes decreased | improved ventricular function greatly | reconnects the relationship between work and flow in the heart | flow is higher |
